Reference: US7262173B2, “Chemosensitizing with liposomes containing oligonucleotides” (Georgetown University, priority 1997, dated 2007)

Legend:
Raf-1 [1] = test: Raf-1 expression in SQ-20B tumor xenografts after i.v. or intratumoral ODN; type: in vivo, human; details: intravenous treatment; compared with untreated controls
Experimental: FIG. 7: Effects of intravenous administration of LE-ATG-AS raf ODN (SEQ ID NO:1) our Raf-1 expression in normal and tumor tissues. Raf-1 expression was examined in liver, kidneys and SQ-20B tumor xenograft of Balb/c nu/nu mice after i.v. injections of 6 mg/kg daily dose of LE-ATG-AS raf ODN (SEQ ID NO:1) (AS) or LE-ATG-S raf ODN (SEQ ID NO:3) (S) for five consecutive days. Control mice (C) received normal saline. Representative data showing Raf-1 expression in lysates normalized for protein content by immunoprecipitation and immunoblotting (top). Quantification data are shown as mean±s.d. from three mice (bottom).
FIG. 8: Inhibition of Raf-1 protein expression in SQ-20B tumor xenografts by intratumoral administration of LE-ATG-AS raf ODN (SEQ ID NO:1): Each animal received intratumoral injections of LE-ATG-AS raf ODN (SEQ ID NO:1) (AS) on the right flank and LE-ATG-S raf ODN (SEQ ID NO:3) (S) on the left flank at a dose of 4 mg/kg daily for seven days as explained in the experimental procedures. […] Quantification data shown are mean±s.d., from three representative mice. […]
For in vivo expression studies, tumor tissue and organs were homogenized in the cell lysis buffer using Polytron homogenizer (Westbury, N.Y., USA). Raf-1 expression was analyzed in tissue homogenates by immunoprecipitation and immunoblotting as described above.

Raf-1 [2] = test: Raf-1 immunoprecipitation and immunoblotting in SQ-20B cells (5132, LE-5132, LE-10353); type: cell-based, human
Experimental: FIG. 9: Antisense sequence-specific inhibition of Raf-1 expression in SQ-20B cells. (A) Logarithmically growing SQ-20B cells were treated with indicated ODN concentrations of LE-5132 (SEQ ID NO:4) (lanes 3, 5 and 10), 5132 (SEQ ID NO:4) (lanes 4 and 6), or LE-10353 (SEQ ID NO:5) (lane 9) as described in Materials and Methods. Control cells were either left untreated (lanes 1 and 7) or treated with 1 uM blank liposomes (BL) (lanes 2 and 8). Whole cell lysates were normalized for total protein content and immunoprecipitated with agarose-conjugated polyclonal anti-Raf-1 antibody. Immune complexes were resolved by 7.5% SDS-PAGE and immunoblotted with polyclonal anti-Raf-1 antibody. (B) Data from three independent experiments were quantified and expressed relative to the level of Raf-1 in untreated cells.
On day two, cells were rinsed with fresh 30% FBS, followed by a second course of the treatment schedule as on day one for an additional 24 hours. This procedure yielded a minimal exposure of cells of LE-5132 (SEQ ID NO:4) 12 hours). […] The lysates were clarified by centrifugation at 16,000 g for 20 minutes, and the protein concentrations were determined (Pierce, Rockford, Ill.). […] The Raf-1 protein level was quantified using the computer software program Image-Quant (Molecular Dynamics, Sunnyvale, Calif.).

SQ-20B tumor xenografts = test: SQ-20B tumor xenograft growth (LE-5132, 5132, ionizing radiation); type: in vivo, Balb/c nu/nu mice; details: 10 mg/kg i.v. daily 7 days then three doses on alternate days; day 35
Experimental: FIG. 13: Effect of LE-5132 (SEQ ID NO:4) on […] tumor growth. SQ-20B rumor cells (2×10^6) were injected a.c. into the left flank region of each male Balb/c nu/nu mouse, 10–12 weeks old. Tumor xenografts were grown to a mean tumor volume of 94±6.4 mm^3, and the animals were randomized into two treatment groups. Day 0 represents the first day of treatment. […] The data shown are mean±SE of 5–7 animals per group.
FIG. 15: Effect of LE-5132 (SEQ ID NO:4) and ionizing radiation on SQ-20B rumor growth. (A) SQ-20B tumor xenografts were grown in male Balb/c nu/nu mice as described. Animals bearing a mean tumor volume of 72.0±4.3 mm^3 were randomized into five treatment groups. Day 0 represents the first day of treatment. […]
Logarithmically growing SQ-20B cells were injected s.c. (2×10^o cells) in the left flank region in male Balb/c nu/nu mice under mild anesthesia. […] Volumes for tumors were determined from caliper measurements of the three major axes (a, b, c) and calculated using abc/2, an approximation for the volume of an ellipse (πabc/6).
For each experiment, tumor-bearing mice were randomly divided into different treatment group, with 5–7 animals per group. […] Using TLD dosimetry, the average dose rate to the center of the tumor and to the mouse body were determined beforehand using the experimental irradiation conditions and a custom-made, tissue-equivalent, mouse phantom. […]

[3] = mouse, in vivo, iv, 30 mg/kg
Experimental: FIG. 11: The plasma concentration-time profile of LE-5132 (SEQ ID NO:4) and 5132 (SEQ ID NO:4); 30 mg/kg LE-5132 (SEQ ID NO:4) or 5132 (SEQ ID NO:4) was administered i.v. in Balb/c nu/nu mice. Blood samples were collected from the retroorbital sinus at indicated times after injection, and ODN in plasma samples was extracted and analyzed by denaturing gel electrophoresis as described. […] Quantification data were calculated based on comparison with known concentrations of the standard samples and then normalized against sample dilution factors used for loading.
Male Balb/c nu/nu mice (National Cancer Institute, Frederick, Md.) were maintained in the Division of Comparative Medicine, Georgetown University, according to accredited procedures, and fed purina chow and water ad libitum. Mice were injected i.v. via the tail vein with 30 mg/kg of LE-5132 (SEQ ID NO:4) or 5132 (SEQ ID NO:4) formulated in PBS. At 5, 15, and 30 minutes and 1, 2, 4, 8, 24, and 48 hours after injection, animals were bled, under anesthesia, from the retroorbital sinus into heparinized tubes and killed by cervical dislocation. The blood was centrifuged immediately at 300 g for 10 minutes at 4° C. to separate the plasma. The liver, spleen, kidney, heart, and lungs were rapidly excised and rinsed in ice-cold normal saline. The plasma and organs were stored at −70° C. until further analysis.
Antisense raf ODN concentrations in plasma and tissue samples were detected as we described earlier (Gokhale et al., 1997). Briefly, the ODN was isolated from plasma samples using the phenol-chloroform extraction method and from tissues using a DNA extraction kit (Stratagene, La Jolla, Calif.). The raf ODN concentration standards were prepared by adding known amounts of 5132 (SEQ ID NO:4) in blank plasma or blank tissue samples, followed by extraction as described earlier. The extracts were loaded onto 20% pblyacrylamide/8 M urea gels and electrophoresed in TBE buffer. The gels were electroblotted onto nylon membranes in 0.5×TBE buffer at 20 V for one hour, and the blots were probed with [^32P]-labeled sense raf ODN probe in Quickhyb buffer (Stratagene) at 30° C. overnight. A 10–50-fold excess of the probe was used to ensure saturation of all bands. The autoradiographs were scanned using a computer program (Image-Quant software), and the amounts of antisense raf ODN in the samples were calculated by comparison with standards.

| Substance | effect on Raf-1 expression in tumor tissue (Raf-1 [1]) | effect on Raf-1 expression in cell culture (Raf-1 [2]) | mean tumor volume compared with day 0 (100%) (SQ-20B tumor xenografts) | AUCarea [3] [ng·h/mL] | CL (total body clearance) [3] [mL/min/kg] | Cmax (peak plasma concentration) [3] [ng/mL] | Vdarea (volume of distribution) [3] [L/kg] | initial distribution half-life [3] [h] | t1/2β (elimination half-life) [3] [h] | terminal half-life (t1/2β) [3] [h] |
| --- | --- | --- | --- | --- | --- | --- | --- | --- | --- | --- |
| 5′-GCAT-CAATGGAGCAC-3′ (sense GCATCAATGGAGCAC; listed as DNA, chemistry not fully specified) [ATG-S raf ODN] | no effect |  |  |  |  |  |  |  |  |  |
| 5′-TCC-CGC-CTG-TGA-CAT-GCA-TT-3′ [compound 5132] |  | ineffective | 159.6%±10.0% | 6200 | 80.3 | 13570 | 29.96 | 0.36 | 4.30 | 4.3 |
